These results are taken from patent US20100311668A1, “PERSONAL CARE AND COSMETIC COMPOSITION CONTAINING TETRAPEPTIDES WITH THE MOTIFS GX1X2G, PX1X2P, OR PX1X2K” (EVONIK GOLDSCHMIDT GMBH, priority 2007, published 2010).

Ends that are not written are not given here.

Assay [1] has as its system hyaluronic acid synthetase 1 (HAS1). In words: Hyaluronic acid synthetase 1 (HAS1) mRNA expression in human dermal fibroblasts, quantitative PCR. In kind it is cell-based. The conditions noted are these: HDFs, 1 μg/ml peptide, 24 hours, vs PBS control, normalized to 18S rRNA. The procedure: FIG. 2: Hyaluronic acid synthetase 1 (HAS1) expression in human dermal fibroblasts (HDFs). […] Controls received PBS. Cells were harvested after 24 hours incubation and RNA was isolated. Expression of […] was determined by quantitative PCR. 18s rRNA served as house keeping gene for normalization. Given are means of three independent experiments.
(§1) Therefore, HDFs prepared from neonatal foreskin were cultured in EMEM (Life Technologies GmbH, Eggenstein, Germany) supplemented with 5% fetal calf serum (Greiner, Frickenhausen, Germany), 0.1% 1-glutamine, 2.5% NaHCO3, and 1% streptomycin/amphotericin B in a humidified atmosphere containing 5% CO2 for 4 days until they reached confluence as described by Schieke et al. J Invest Dermatol 2002, 119: 1323-9. […]
(§2) For isolation of total RNA RNeasy Total RNA Kits (Qiagen, Hilden; Germany) were used according to the manufacturer's guidelines. The RNA concentration was determined via photometric measurement at 260/280 (Biophotometer, Eppendorf, Hamburg, Germany).
(§3) Aliquots of total RNA (100 ng) were applied for cDNA-Synthesis using Superscript™ III First-Strand synthesis system for the reverse transcription step with random […] (Invitrogen, Karlsruhe, Germany). […] Three independent experiments were performed with 3 determinations each and the mean value of these was calculated. […] Each sample was analyzed in double employing the universal protocol over 46 cycles. […]

The subject of assay [2] is collagen 1 alpha-2 (COL1A2). In words: Collagen 1 alpha-2 (COL1A2) mRNA expression in human dermal fibroblasts, quantitative PCR. The class given is cell-based. The following applies: HDFs, 1 μg/ml peptide, 24 hours, vs PBS control, normalized to 18S rRNA.
Method: FIG. 4: Collagen 1 alpha-2 (COL1A2) expression in human dermal fibroblasts (HDFs). […] Controls received PBS. Cells were harvested after 24 hours incubation and RNA was isolated. […] 18s rRNA served as house keeping gene for normalization. Given are means of three independent experiments.
Aliquots of total RNA (100 ng) were applied for cDNA-Synthesis using Superscript™ III First-Strand synthesis system for the reverse transcription step with random healers (Invitrogen, Karlsruhe, Germany). […] Three independent experiments were performed with 3 determinations each and the mean value of these was calculated. […] Each sample was analyzed in double employing the universal protocol over 46 cycles. […]
Another assay relates to fibronectin 1 (FN1). Nature of the assay: Fibronectin 1 (FN1) mRNA expression in human dermal fibroblasts, quantitative PCR. The following applies: HDFs, 1 μg/ml peptide, 24 hours, vs PBS control, normalized to 18S rRNA. The class given is cell-based. The procedure: FIG. 1: Fibronectin 1 (FN1) expression in human dermal fibroblasts (HDFs). […] Controls received PBS. Cells were harvested after 24 hours incubation and RNA was isolated. Expression of FN1 was determined by quantitative PCR. 18s rRNA served as house keeping gene for normalization. Given are means of three independent experiments.
as §1, §2, §3

The test system of assay [3] is human dermal fibroblasts (HDFs). In words: Collagen production in human dermal fibroblasts, Sircol Soluble Collagen Assay of culture supernatants. In kind it is cell-based. The conditions noted are these: 1 μg/ml peptide, 24 hours, vs PBS control. The procedure: FIG. 5: Collagen production in human dermal fibroblasts (HDFs). […] Controls received PBS. Cell culture supernatands were collected after 24 hours incubation. Amounts of collagen were determined as described above. Given are means of three independent experiments.
Therefore, HDFs prepared from neonatal foreskin were cultured in EMEM (Life Technologies GmbH, Eggenstein, Germany) supplemented with 5% fetal calf serum (Greiner, Frickenhausen, Germany), 0.1% 1-glutamine, 2.5% NaHCO3, and 1% streptomycin/amphotericin B in a humidified atmosphere containing 5% CO2 for 4 days until they reached confluence as described by Schieke et al. J Invest Dermatol 2002, 119: 1323-9. For all studies, only early passage (<12) fibroblasts have been used to avoid changes in their original phenotype during subculture. Cells were kept in 6 well plates for culture. Peptides dissolved in PBS were added at concentrations of 1 μg/ml and incubated for 24 hours.
The amount of collagen in cell culture supernatants was determined utilizing a Sircol™ Soluble Collagen Assay (# S1000) from Biocolor Ltd. (Newtownabbay, Northern Ireland, UK) following the guidelines of the manufacturer.

In assay [4] the test system is collagen 1 alpha-1 (COL1A1). Nature of the assay: Collagen 1 alpha-1 (COL1A1) mRNA expression in human dermal fibroblasts, quantitative PCR. The class given is cell-based. The conditions noted are these: HDFs, 1 μg/ml peptide, 24 hours, vs PBS control, normalized to 18S rRNA. On the procedure: FIG. 3: Collagen 1 alpha-1 (COL1A1) expression in human dermal fibroblasts (HDFs). […] Controls received PBS. Cells were harvested after 24 hours incubation and RNA was isolated. Expression of […] was determined by quantitative PCR. 18s rRNA served as house keeping gene for normalization. Given are means of three independent experiments.
as §1, §2, §3

A further assay has as its system collagen. The conditions noted are these: prior-art product background; cited from earlier work.
Assay [5] concerns proinflammatory cytokines. In words: Inhibition of UV-induced expression of proinflammatory cytokines.

In the case of “GEPG (also: N-acyl group, acyl not given here) [SEQ ID NO:1, tetrapeptide GEPG]”, the HAS1 expression entry in assay [1] is on record as “strongest effects”. Further, in assay [2], the COL1A2 expression entry is recorded as “triggering effects”.

Turning to “GPPG (also: N-acyl group, acyl not given here) [SEQ ID NO:2, tetrapeptide GPPG]”, the FN1 expression result with fibronectin 1 (FN1) was “strongest effects”.

Consider “GEKG (also: N-acyl group, acyl not given here) [SEQ ID NO:3, tetrapeptide GEKG]”, for which the HAS1 expression entry in assay [1] is reported as “strongest effects”. In assay [3], the “collagen production (collagen protein in cell culture supernatants)” value is “markedly increased production of collagen”.

As for GAGP [SEQ ID NO:11, tetrapeptide GAGP], in assay [4], the COL1A1 expression entry is given as “Strongest effects”.

Regarding Val-Trp, in the assay on collagen, the collagen stimulating activity result is given as “no significant collagen stimulating activity”.

“PGPP (also: N-acyl group, acyl not given here) [SEQ ID NO:4, tetrapeptide PGPP]”: the FN1 expression result in the assay with fibronectin 1 (FN1) is on record as “strongest effects”. Besides, in assay [2], the COL1A2 expression entry was “triggering effects”. For the same substance, the “collagen production (collagen protein in cell culture supernatants)” value in assay [3] was “markedly increased production of collagen”.

On to “PKEK (also: N-acyl group, acyl not given here) [tetrapeptide PKEK]”, for which the “inhibition of UV-induced expression of proinflammatory cytokines” value in assay [5] is on record as “inhibition of UV-induced expression of proinflammatory cytokines”.
